Results taken from ChEMBL document CHEMBL5223175, “Discovery of novel 2-oximino-2-indolylacetamide derivatives as potent anticancer agents capable of inducing cell autophagy and ferroptosis” (Bioorg Med Chem, 2023).
Activity calls are given as the source filed them. No cut-off for these calls is given here.

How the values were obtained:
CAL-27 [1] = assay: Antiproliferative activity against human CAL-27 cells assessed as reduction in cell viability at 5 to 40 uM incubated for 48 hrs by CCK-8 assay; type: functional, cell-based; conditions: dose 5-40 µM
5-8F [2] = assay: Induction of ROS generation in human 5-8F cells at 30 uM pretreated with NAC for 2 hrs followed by compound addition and measured after 48 hrs by DCFH-DA staining based flow cytometry analysis; type: functional, cell-based
FaDu = assay: Antiproliferative activity against human FaDu cells assessed as reduction in cell viability incubated for 72 hrs by CCK-8 assay; type: functional, cell-based
[3] = Toxicity in BALB/c mouse xenografted with human 5-8F cells assessed as change in lung morphology at 10 to 20 mg/kg, ip administered daily by H and E staining based assay; type: organism-based; conditions: in vivo, dose 10-20 mg/kg
5-8F [4] = assay: Induction of apoptosis in human 5-8F cells assessed as appearance of rounded cells incubated for 48 hrs by microscopic analysis; type: functional, cell-based; conditions: dose 10-30 µM
5-8F [5] = assay: Antiproliferative activity against human 5-8F cells assessed as cell viability at 80 uM incubated for 72 hrs by CCK-8 assay; type: functional; conditions: read-out: Activity
[6] = Antiproliferative activity against human NP69SV40T cells assessed as reduction in cell viability incubated for 72 hrs by CCK-8 assay; type: toxicity, cell-based
5-8F [7] = assay: Antiproliferative activity against human 5-8F cells assessed as decrease in cell viability at 30 uM incubated for 48 hrs in presence of Era; type: functional, cell-based
HeLa = assay: Antiproliferative activity against human HeLa cells assessed as cell viability at 80 uM incubated for 72 hrs by CCK-8 assay; type: functional; conditions: read-out: Activity
5-8F [8] = assay: Induction of ferroptosis in human 5-8F cells assessed as decrease in GPx4 expression at 10 to 30 uM incubated for 48 hrs in presence of Fer-1 by Western blotting analysis; type: functional, cell-based; conditions: dose 10-30 µM
5-8F [9] = assay: Induction of ferroptosis in human 5-8F cells assessed as appearance of mitochondrial pyknosis at 30 uM incubated for 48 hrs by TEM analysis; type: functional, cell-based
5-8F [10] = assay: Downregulation of p-ERK1/2 in human 5-8F cells at 10 to 30 uM by Western blotting analysis; type: functional, cell-based; conditions: dose 10-30 µM
[11] = Toxicity in BALB/c mouse xenografted with human 5-8F cells assessed as change in kidney morphology at 10 to 20 mg/kg, ip administered daily by H and E staining based assay; type: organism-based; conditions: in vivo, dose 10-20 mg/kg
5-8F [12] = assay: Induction of autophagy in human 5-8F cells assessed as increase in LC3 puncta accumulation at 30 uM incubated for 48 hrs by confocal microscopy analysis; type: functional, cell-based
5-8F [13] = assay: Antitumor activity against human 5-8F cells xenografted in BALB/c mouse assessed as tumor growth inhibition at 10 to 20 mg/kg, ip administered daily; type: functional, organism-based; conditions: dose 10-20 mg/kg
5-8F [14] = assay: Induction of ferroptosis in human 5-8F cells assessed as appearance of thickened cristae at 30 uM incubated for 48 hrs by TEM analysis; type: functional, cell-based
5-8F [15] = assay: Induction of apoptosis in human 5-8F cells assessed as appearance of floating cells incubated for 48 hrs by microscopic analysis; type: functional, cell-based; conditions: dose 10-30 µM
5-8F [16] = assay: Antitumor activity against human 5-8F cells xenografted in BALB/c mouse assessed as decrease in Ki67 expression at 10 to 20 mg/kg, ip administered daily; type: functional, organism-based; conditions: dose 10-20 mg/kg
5-8F [17] = assay: Induction of ferroptosis in human 5-8F cells assessed as appearance of pseudo inclusion bodies at 30 uM incubated for 48 hrs by TEM analysis; type: functional, cell-based
5-8F [18] = assay: Downregulation of p-mTOR expression in human 5-8F cells at 10 to 30 uM by Western blotting analysis; type: functional, cell-based; conditions: dose 10-30 µM
5-8F [19] = assay: Induction of ferroptosis in human 5-8F cells assessed as appearance of vacuoles at 30 uM incubated for 48 hrs by TEM analysis; type: functional, cell-based
[20] = Toxicity in BALB/c mouse xenografted with human 5-8F cells assessed as change in liver morphology at 10 to 20 mg/kg, ip administered daily by H and E staining based assay; type: organism-based; conditions: in vivo, dose 10-20 mg/kg
5-8F [21] = assay: Induction of ROS generation in human 5-8F cells at 10 to 30 uM after 48 hrs by fluorescence microscopy analysis; type: functional, cell-based; conditions: dose 10-30 µM
5-8F [22] = assay: Antiproliferative activity against human 5-8F cells assessed as reduction in Ki67 expression at 10 to 30 uM by Western blotting analysis; type: functional, cell-based; conditions: dose 10-30 µM
5-8F [23] = assay: Induction of autophagy in human 5-8F cells assessed as appearance of autophagic vacuoles at 30 uM incubated for 48 hrs by TEM analysis; type: functional, cell-based
5-8F [24] = assay: Antiproliferative activity against human 5-8F cells assessed as reduction in cell viability at 5 to 40 uM incubated for 48 hrs by CCK-8 assay; type: functional, cell-based; conditions: dose 5-40 µM
5-8F [25] = assay: Induction of ferroptosis in human 5-8F cells assessed as decrease in GPx4 expression at 10 to 30 uM incubated for 48 hrs in presence of Era by Western blotting analysis; type: functional, cell-based; conditions: dose 10-30 µM
5-8F [26] = assay: Downregulation of STAT3 phosphorylation in human 5-8F cells at 10 to 30 uM incubated for 48 hrs by Western blotting analysis; type: functional, cell-based; conditions: dose 10-30 µM
5-8F [27] = assay: Induction of apoptosis in human 5-8F cells assessed as downregulation of Bcl-2 expression at 10 to 30 uM incubated for 48 hrs by Western blotting analysis; type: functional, cell-based; conditions: dose 10-30 µM
5-8F [28] = assay: Downregulation of p-AKT expression in human 5-8F cells at 10 to 30 uM by Western blotting analysis; type: functional, cell-based; conditions: dose 10-30 µM
CAL-27 [29] = assay: Antiproliferative activity against human CAL-27 cells assessed as reduction in cell viability incubated for 72 hrs by CCK-8 assay; type: functional, cell-based; conditions: CAL-27, 72 h
CAL-27 [30] = assay: Antiproliferative activity against human CAL-27 cells assessed as reduction in Ki67 expression at 10 to 30 uM by Western blotting analysis; type: functional, cell-based; conditions: dose 10-30 µM
5-8F [31] = assay: Induction of ferroptosis in human 5-8F cells assessed as appearance of widened gabs between cristae at 30 uM incubated for 48 hrs by TEM analysis; type: functional, cell-based
5-8F [32] = assay: Upregulation of p38 MAPK phosphorylation in human 5-8F cells at 10 to 30 uM by Western blotting analysis; type: functional, cell-based; conditions: dose 10-30 µM
SK-HEP1 = assay: Antiproliferative activity against human SK-HEP1 cells assessed as cell viability at 80 uM incubated for 72 hrs by CCK-8 assay; type: functional; conditions: read-out: Activity
5-8F [33] = assay: Induction of ferroptosis in human 5-8F cells assessed as change in mitochondrial morphology at 30 uM incubated for 48 hrs by TEM analysis; type: functional, cell-based
5-8F [34] = assay: Induction of apoptosis in human 5-8F cells at 30 uM incubated for 48 hrs by Annexin V-FITC and PI staining based flow cytometry analysis; type: functional
5-8F [35] = assay: Induction of autophagy in human 5-8F cells assessed as increase in Beclin-1 expression at 10 to 30 uM by Western blotting analysis; type: functional, cell-based; conditions: dose 10-30 µM
5-8F [36] = assay: Induction of ROS generation in human 5-8F cells at 10 to 30 uM after 48 hrs by DCFH-DA staining based flow cytometry analysis; type: functional, cell-based; conditions: dose 10-30 µM
[37] = Toxicity in BALB/c mouse xenografted with human 5-8F cells assessed as change in heart morphology at 10 to 20 mg/kg, ip administered daily by H and E staining based assay; type: organism-based; conditions: in vivo, dose 10-20 mg/kg
5-8F [38] = assay: Induction of autophagy in human 5-8F cells assessed as decrease in p62 expression at 10 to 30 uM by Western blotting analysis; type: functional, cell-based; conditions: dose 10-30 µM

For Cn1cc(/C(=N\O)C(=O)Nc2ccc(Cl)cc2)c2ccccc21, the Activity (CAL-27 [1]) was “Active”, the Activity (5-8F [2]) was “inactive” and the IC50 (FaDu) was 22.2 µM. For the same compound, the Activity [3] was “Non-Toxic”, the Activity (5-8F [4]) was “Dose-Dependent Effect” and the viability at 80 µM (5-8F [5]) was 7.8%. The IC50 at 72 h [6] was 70.9 µM, the Activity (5-8F [7]) was “Active” and the viability at 80 µM (HeLa) was 12.3%. For the same compound, the Activity (5-8F [8]) was “inactive”, the Activity (5-8F [9]) was “Active” and the Activity (5-8F [10]) was “Active”. The Activity [11] was “Non-Toxic”, the Activity (5-8F [12]) was “Active” and the Activity (5-8F [13]) was “Active”. The Activity (5-8F [14]) was “Active”, the Activity (5-8F [15]) was “Dose-Dependent Effect” and the Activity (5-8F [16]) was “Active”. For the same compound, the Activity (5-8F [17]) was “Active”, the Activity (5-8F [18]) was “Active” and the Activity (5-8F [19]) was “Active”. For the same compound, the Activity [20] was “Non-Toxic”, the Activity (5-8F [21]) was “Active” and the Activity (5-8F [22]) was “Active”. The Activity (5-8F [23]) was “Active”, the Activity (5-8F [24]) was “Active” and the Activity (5-8F [25]) was “Active”. For the same compound, the Activity (5-8F [26]) was “Active”, the Activity (5-8F [27]) was “Active” and the Activity (5-8F [28]) was “Active”. For the same compound, the IC50 (CAL-27 [29]) was 13.7 µM, the Activity (CAL-27 [30]) was “Active” and the Activity (5-8F [31]) was “Active”. For the same compound, the Activity (5-8F [32]) was “Active”, the viability at 80 µM (SK-HEP1) was 20.9% and the Activity (5-8F [33]) was “Active”. The Activity (5-8F [34]) was 29.1%, the Activity (5-8F [35]) was “Active” and the Activity (5-8F [36]) was “Active”. The Activity [37] was “Non-Toxic” and the Activity (5-8F [38]) was “Active”.
